Laboratory results from patent US20230087844A1, “USE OF N2-QUINCLINE OR ISOQUINOLINE SUBSTITUTED PURINE DERIVATIVES IN CANCER TREATMENT” (SHANGHAI HUAYU BIOTECHNOLOGY CO., LTD., priority 2020, published 2023).
Marks after values point to notes of the source that are not given here.

Columns and labels:
[1] = system: U87; test: MTT tumor cell proliferation, U87; format: cell-based; settings: Homo sapiens, U-87 MG; U87, Brain glioma, 72 hour
Description: (§1) as an exemplary compound of formula (I), was tested for its inhibitory effect on tumor cell proliferation in a MTT assay.
(§2) Briefly, cells at the log phase were collected, suspended in the cell culture medium at 4*10^4/ml density, and plated in 96-well plates, 90 μl per well. The plates were kept in a 5% CO2 and 37° C. incubator for 2 hours, and then added with 100 μg/ml, 10 μg/ml, 1 μg/ml, 0.1 μg/ml, 0.01 μg/ml or 0.001 μg/ml Compound A, 4 replicates for each cell at each compound concentration. DMSO was used in the positive control group, and another negative group was also set. After 72 hour incubation in the same incubator, 20 μl 5 mg/ml MTT reagent was added to each well. After another 4 hour incubation, each well was added with 100 μl SDS and further incubated for 12 hours. Absorbance at 570 nm was read in a reader, and IC50 was calculated.

[2] = system: MV-4-11; test: MTT tumor cell proliferation, MV-4-11; format: cell-based; settings: Homo sapiens, MV4-11; MV-4-11, Acute myeloid leukemia, 72 hour
Description: as §1, §2

[3] = target: PI3K α isoform (Homo sapiens, UniProt P42336); settings: one of the other three isoforms
[4] = system: THP-1; test: MTT tumor cell proliferation, THP-1; format: cell-based; settings: Homo sapiens; THP-1, Acute monocytic leukemia, 72 hour
Description: as §1, §2

[5] = system: Reh; test: MTT tumor cell proliferation, Reh; format: cell-based; settings: Homo sapiens, Acute lymphocytic leukemia, 72 hour
Description: as §1, §2

[6] = system: SNU-5; test: MTT tumor cell proliferation, SNU-5; format: cell-based; settings: Homo sapiens; SNU-5, Gastric cancer, 72 hour
Description: as §1, §2

[7] = system: MCF-7; test: MTT tumor cell proliferation, MCF-7; format: cell-based; settings: Homo sapiens, MCF7; MCF-7, Breast cancer, 72 hour
Description: as §1, §2

[8] = system: S180 murine sarcoma cancer cells; test: S180 sarcoma growth in mice; settings: for TGI: tumor weight, Day 8
Description: On Day 8, the mice were weighed and sacrificed, and the tumors were collected and weighed.
Tumor growth inhibition (TGI) was calculated by the following formula. Tumor growth inhibition=(average tumor weight in vehicle group-average tumor weight in administration group)/average tumor weight in vehicle group×100%

[9] = system: NCI-H460; test: MTT tumor cell proliferation, NCI-H460; format: cell-based; settings: Homo sapiens; NCI-H460, Lung cancer, 72 hour
Description: as §1, §2

[10] = system: Colon26 murine colon cancer cells; test: Colon26 colon cancer growth in mice; format: in vivo, F1 mice; settings: D1-7; for TGI / Tumor weight: Day 8
Description: F1 mice, 18-22 g, purchased from Shanghai Bi-Kai Laboratory Animal Co., Ltd, were subcutaneously inoculated with Colon26 murine colon cancer cells (from Cell Bank, Chinese Academy of Sciences) at the right axilla. […] Tumor growth inhibition (TGI) was calculated.

[11] = system: MV-4-11 cells; test: MV-4-11 AML xenograft in mice, combination with daunorubicin (Example 8); format: in vivo, BALB-cA nude mice; settings: 30 mg/kg P.O., D0-10
Description: Mice body weights and tumor sizes were measured twice a week. The tumor volume, T/C and TGI (Tumor growth inhibition=(average tumor volume in vehicle group-average tumor volume in administration group)/average tumor volume in vehicle group ×100%) were calculated. Mice were sacrificed on Day 21. Female BALB-cA nude mice, 6-7 weeks old, purchased from Shanghai Ling-chang Biotech Co., Ltd, were subcutaneously inoculated with MV-4-11 cells (from ATCC). […] Mice body weights and tumor sizes were measured twice a week. The tumor volume, T/C and tumor volume based TGI were calculated as described above. Mice were sacrificed on Day 11.

[12] = system: SK-BR-3; test: MTT tumor cell proliferation, SK-BR-3; format: cell-based; settings: Homo sapiens; SK-BR-3, Breast cancer, 72 hour
Description: as §1, §2

PI3K α isoform, sequence (P42336 whole entry, canonical isoform): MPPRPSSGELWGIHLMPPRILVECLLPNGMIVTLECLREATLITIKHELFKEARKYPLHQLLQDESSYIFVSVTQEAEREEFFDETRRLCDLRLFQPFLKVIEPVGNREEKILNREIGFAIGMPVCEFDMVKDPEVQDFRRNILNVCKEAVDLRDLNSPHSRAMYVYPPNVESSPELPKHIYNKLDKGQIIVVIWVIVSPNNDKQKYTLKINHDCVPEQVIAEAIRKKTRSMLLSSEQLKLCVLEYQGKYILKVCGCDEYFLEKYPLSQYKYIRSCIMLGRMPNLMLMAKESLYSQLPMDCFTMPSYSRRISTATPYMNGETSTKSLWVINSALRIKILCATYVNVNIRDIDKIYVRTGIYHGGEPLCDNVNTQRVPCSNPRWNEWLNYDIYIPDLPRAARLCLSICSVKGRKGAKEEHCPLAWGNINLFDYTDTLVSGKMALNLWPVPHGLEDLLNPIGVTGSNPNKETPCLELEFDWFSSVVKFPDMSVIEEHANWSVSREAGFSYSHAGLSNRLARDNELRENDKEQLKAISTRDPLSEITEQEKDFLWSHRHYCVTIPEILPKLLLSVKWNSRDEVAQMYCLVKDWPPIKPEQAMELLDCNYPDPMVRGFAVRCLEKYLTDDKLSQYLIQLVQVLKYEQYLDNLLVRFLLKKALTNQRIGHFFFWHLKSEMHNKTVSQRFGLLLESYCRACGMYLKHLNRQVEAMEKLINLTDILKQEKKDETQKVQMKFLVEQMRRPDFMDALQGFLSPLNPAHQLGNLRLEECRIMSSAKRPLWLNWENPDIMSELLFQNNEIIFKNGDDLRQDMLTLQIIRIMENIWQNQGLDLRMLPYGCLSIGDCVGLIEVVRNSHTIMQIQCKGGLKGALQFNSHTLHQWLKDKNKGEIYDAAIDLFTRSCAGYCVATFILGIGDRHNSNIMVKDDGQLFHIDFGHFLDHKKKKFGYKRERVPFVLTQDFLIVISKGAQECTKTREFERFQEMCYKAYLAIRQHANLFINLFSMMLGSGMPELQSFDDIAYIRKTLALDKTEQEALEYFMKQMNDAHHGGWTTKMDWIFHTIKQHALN
PI3K α isoform, sequence (P27986 whole entry partner, canonical isoform): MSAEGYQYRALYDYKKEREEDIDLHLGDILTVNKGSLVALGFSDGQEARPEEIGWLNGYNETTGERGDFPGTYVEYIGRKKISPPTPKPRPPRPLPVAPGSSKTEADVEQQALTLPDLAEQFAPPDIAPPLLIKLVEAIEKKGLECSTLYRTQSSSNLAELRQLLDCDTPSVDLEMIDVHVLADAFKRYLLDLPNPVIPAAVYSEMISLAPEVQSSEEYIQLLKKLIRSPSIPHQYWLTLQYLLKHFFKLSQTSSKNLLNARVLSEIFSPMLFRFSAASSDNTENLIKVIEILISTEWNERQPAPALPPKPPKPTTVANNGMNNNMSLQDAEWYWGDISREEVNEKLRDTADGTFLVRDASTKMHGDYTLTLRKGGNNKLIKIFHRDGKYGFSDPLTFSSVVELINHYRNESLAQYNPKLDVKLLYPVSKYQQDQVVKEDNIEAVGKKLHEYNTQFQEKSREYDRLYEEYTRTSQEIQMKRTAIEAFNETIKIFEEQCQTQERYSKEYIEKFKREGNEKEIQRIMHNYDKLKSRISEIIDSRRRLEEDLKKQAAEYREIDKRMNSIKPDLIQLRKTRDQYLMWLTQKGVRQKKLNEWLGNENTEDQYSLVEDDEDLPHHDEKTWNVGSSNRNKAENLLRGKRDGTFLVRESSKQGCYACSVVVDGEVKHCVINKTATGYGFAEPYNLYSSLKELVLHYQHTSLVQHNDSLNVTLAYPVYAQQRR

## c1cnc2ccc(Nc3nc(NC4CC4)c4nc[nH]c4n3)cc2c1 [Compound A]
[1]
  IC50: 9.7 ± 7 µM
[2]
  IC50: 0.3 ± 0.1 µM
[3]
  EC50, PI3K α isoform: at the μM level
[4]
  IC50: 1.6 ± 1.6 µM
[5]
  IC50: 0.8 ± 0.1 µM
[6]
  IC50: 12.1 ± 2 µM
[7]
  IC50: 26.5 ± 7.7 µM
[8]; 60 mg/kg P.O., D1-4
  Tumor weight on Day 8: 0.33 ± 0.13 g
  TGI: 82.8* %
[8]; 80 mg/kg I.V., D1&D4
  Tumor weight on Day 8: 1.10 ± 0.21 g
  TGI: 42.7* %
[8]; 80 mg/kg P.O., D1 &D4
  Tumor weight on Day 8: 1.12 ± 0.34 g
  TGI: 41.7* %
[9]
  IC50: 4 ± 0.4 µM
[10]; 30 mg/kg P.O.
  Body weight (without tumor) at D8: 21.57 g
  TGI: 31.88%
  Tumor weight: 1.39 g
[10]; 60 mg/kg P.O.
  Body weight (without tumor) at D8: 15.96 g
  TGI: 76.12%
  Tumor weight: 0.49 g
[11]; D11
  T/C: 71%
  TGI: 29%
[11]; in mm³
  Tumor volume D0: 150.9
  Tumor volume D11: 2076.3
[12]
  IC50: 16.5 ± 0.9 µM
